Test results from the supplement of paper PMC10307832.

Assays:
Assay in all cases: relative viability (nuclei count vs DMSO), 5 days (fraction); higher = more cells survive
[1] = compound: C1=CC=C2C(=C1)C=CC(=C2SSC3=C(C=CC4=CC=CC=C43)O)O [IPA-3] + CC(=O)c1c(C)c2cnc(Nc3ccc(N4CCNCC4)cn3)nc2n(C2CCCC2)c1=O [Palbociclib] (partner 0.5 µM)
How it was run: (§1)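 One day after seeding in 1536-well plates, lung cancer cell lines were dosed by pin tool. Dosing was either single-drug or a fixed anchor-drug dose plus five library-drug doses (not always all listed) in √10 steps. After 5 days, nuclei were stained in one fix-and-stain step and counted on 4× images, and relative viability is the nuclei count of treated wells over that of vehicle wells, given as the median of duplicate plates.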

[2] = compound: Cn1c(Nc2ccc(C(F)(F)F)cc2)nc2cc(Oc3ccnc(-c4ncc(C(F)(F)F)[nH]4)c3)ccc21 [RAF265] + CCNC(=O)c1noc(-c2cc(C(C)C)c(O)cc2O)c1-c1ccc(CN2CCOCC2)cc1 [Luminespib] (partner 0.01 µM)
How it was run: as §1

[3] = compound: Cc1ccc(-n2nc(C(C)(C)C)cc2NC(=O)Nc2ccc(OCCN3CCOCC3)c3ccccc23)cc1 [Doramapimod] + CC(=O)Nc1cccc(-n2c(=O)n(C3CC3)c(=O)c3c(Nc4ccc(I)cc4F)n(C)c(=O)c(C)c32)c1 [Trametinib] (partner 0.02 µM)
How it was run: as §1

[4] = compound: Cc1ccc(-n2nc(C(C)(C)C)cc2NC(=O)Nc2ccc(OCCN3CCOCC3)c3ccccc23)cc1 [Doramapimod] + Cc1nc(NC(=O)N2CCC[C@H]2C(N)=O)sc1-c1ccnc(C(C)(C)C(F)(F)F)c1 [Alpelisib] (partner 2 µM)
How it was run: as §1

Cell Line	relative viability ([1]; first compound 0.2 µM)	relative viability ([1]; first compound 0.6325 µM)	relative viability ([1]; first compound 2 µM)	relative viability ([1]; first compound 6.325 µM)	relative viability ([1]; first compound 20 µM)	relative viability ([2]; first compound 0.01 µM)	relative viability ([2]; first compound 0.03162 µM)	relative viability ([2]; first compound 0.1 µM)	relative viability ([2]; first compound 0.3162 µM)	relative viability ([2]; first compound 1 µM)	relative viability ([3]; first compound 0.02 µM)	relative viability ([3]; first compound 0.06325 µM)	relative viability ([3]; first compound 0.2 µM)	relative viability ([3]; first compound 0.6325 µM)	relative viability ([3]; first compound 2 µM)	relative viability ([4]; first compound 0.02 µM)	relative viability ([4]; first compound 0.06325 µM)	relative viability ([4]; first compound 0.2 µM)	relative viability ([4]; first compound 0.6325 µM)	relative viability ([4]; first compound 2 µM)
LCLC-103H	0.496	0.498	0.485	0.438	0.492	0.798	0.804	0.789	0.739	0.39	0.656	0.675	0.683	0.68	0.679	0.998	0.917	0.961	0.966	0.973
NCI-H23	0.477	0.4	0.486	0.486	0.542	0.22	0.225	0.221	0.212	0.221	0.287	0.346	0.402	0.415	0.376	0.711	0.64	0.753	0.867	0.59
NCI-H1792	0.684	0.658	0.662	0.677	0.731	0.46	0.528	0.379	0.317	0.148	0.446	0.407	0.379	0.374	0.27	0.606	0.658	0.578	0.713	0.521
NCI-H460	0.203	0.108	0.145	0.19	0.057	0.0219	0.0359	0.0291	0.0265	0.0248	0.163	0.143	0.135	0.159	0.105	0.446	0.467	0.372	0.441	0.357
NCI-H2085	0.474	0.457	0.471	0.436	0.54	0.493	0.403	0.492	0.428	0.427	0.496	0.494	0.502	0.471	0.494	1.03	0.928	0.839	0.913	0.93
PC-14	0.648	0.324	0.512	0.446	0.352	0.163	0.128	0.248		0.139	0.756	0.864	0.782	0.856	0.619	1.01	1.06	0.892	0.995	0.89
HOP-62	0.435	0.365	0.414	0.451	0.513	0.988	0.879	0.93	0.774	0.688	0.411	0.349	0.464	0.423	0.468	0.898	1.14	0.896	0.975	0.874
NCI-H2087	0.263	0.207	0.22	0.219	0.283	0.136	0.209	0.214	0.162	0.16	0.235	0.163	0.198	0.197	0.193	1.2	1.25	1.05	1.23	0.838
NCI-H1793	0.345	0.288	0.311	0.318	0.371	0.212	0.147	0.184		0.222	0.418	0.435	0.408	0.377	0.406	0.788	0.595	0.786	0.643	0.595
PC-3 [JPC-3]	0.537	0.541	0.538	0.531	0.477	0.667	0.654	0.713		0.386	0.849	0.726	0.748	0.839	0.845	1.15	1.01	1.09	1.11	0.978
H3255	0.306	0.308	0.29	0.298	0.272	0.767	0.876	0.953		0.634	0.581	0.522	0.626		0.522	0.785	0.659	0.705	0.83	0.621
EMC-BAC-2	0.537	0.509	0.527	0.516	0.532	1.2	0.998	1.01	0.819	0.357	0.884	0.816	0.894	0.873	0.766	0.75	0.736	0.727	0.761	0.695
CAL-12T	0.718	0.342	0.404	0.28	0.421	0.238	0.426	0.341	0.491	0.0919	0.333	0.325	0.342	0.402	0.297	1.1	1.05	1.21	1.41	1.09
NCI-H650	0.373	0.361	0.323	0.361	0.426	0.803	0.785	0.834	0.497	0.339	0.963	0.977	0.988	1.05	0.978	1.16	1.17	1.23	1.34	1.23
SK-MES-1	0.326	0.308	0.332	0.277	0.238	0.726	0.414	0.33	0.228	0.191	0.55	0.56	0.477	0.519	0.483	0.87	0.765	0.766	0.869	0.675
NCI-H1355	0.445	0.395	0.386	0.405	0.424	0.705	0.726	0.747	0.411	0.246	0.456	0.393	0.376	0.43	0.408	0.739	0.793	0.754	0.868	0.732
